Laboratory results as given in US12605386B2, “Sapropterin formulation” (APR Applied Pharma Research SA, priority 2022, dated 2026).
Like-named read-outs stand apart in the source and are kept apart here.

Key:
[1] = powder and tablet formulations suspended in various foods and water at 20 mg/mL (62 mM); after one hour; cited from earlier work
[2] = Vegetable oil suspension stability study, water extraction and HPLC; format: physicochemical; details: oil free control; freshly prepared aqueous solutions
Experimental: A simple stability study was carried out to establish the stability potential of the formulations tested. The stability study was carried out for a month at room temperature as this would reflect the conditions under which the material would be stored.
The stability work was focused on vegetable oils. Food grade vegetable oils were tested and they were sourced from a supermarket and only opened before starting the stability work. Exploratory stability work was then carried out to establish the potential of liquid formulations for sunflower oil, olive oil, rapeseed oil and rice bran oil.
Stability was informally assessed by preparing 10% w/w sapropterin suspensions and storing at room temperature on a shelf away from direct sunlight. Individual aliquots were prepared at each time point. At each sampling point sapropterin was extracted from oil with water as set out below and the sample analysed by HPLC. Absence of degradation products was used to establish lack of oxidation. The HPLC method set out above was not validated for quantitative analysis. Instead, SPT peak size was also semi-quantitatively used to further corroborate absence of oxidation but this was carried out by simply overlaying traces (e.g. SPT peak size at day 0 vs day 7) rather than performing calibrations curves of SPT. […]
Samples were analysed at day 0, day 5, day 7, and/or day 31.

[3] = Visual observation of unformulated SPT solutions; format: physicochemical; details: 100 mM solutions; yellow/orange colour developed overtime
Experimental: Stability over time of unformulated SPT solutions was initially investigated through visual observation of 100 mM solutions. The solutions were seen to be very unstable and a yellow/orange colour developed overtime, presumably due to the formation of oxidation sub-products.

[4] = Peroxide degradation of sapropterin with HPLC analysis; format: physicochemical; details: peroxide degradation: 5 mL of 0.1% H2O2, 1.5 hours, room temperature
Experimental: A sample of sapropterin was subjected to peroxide degradation with 5 mL of 0.1% H2O2 for 1.5 hours at room temperature.
HPLC analysis of the resulting oxidative degradation of sapropterin was performed according to the procedure described below and the results are shown in Table 2.
• Column: YMC Pack ODS AQ (250×4.6) mm, […] • Buffer: potassium dihydrogen phosphate pH3.0 with orthophosphoric acid • Mobile Phase A: 100% Buffer • Mobile Phase B: acetonitrile:methanol (1:9) • Wavelength: 220 nm for Impurity A, C, D, E, G • Wavelength: 275 nm for Impurity F • Flow: 0.6 ml/min • Injection Volume: 5 μl • Column Temperature: 30° C. • Sample Compartment: 5° C. • Run Time: 45 min Preparation of Mobile Phase: • Mobile Phase A: 2.72 g of potassium dihydrogen phosphate was added to 1000 ml of water and dissolved. pH was adjusted to 3.0 using orthophosphoric acid. The solution was mixed and filtered through 0.45 μm nylon membrane filter and degassed. • Mobile Phase B: 900 ml of methanol and 100 ml of acetonitrile was dissolved, mixed, and degassed.
Preparation of 0.1N HCl: 8.5 ml of hydrochloric acid was added to 900 ml of water, diluted to 1000 ml with water, and then mixed.
Diluent: 2.72 g of potassium dihydrogen phosphate was added to 1000 ml of water and dissolved. pH was adjusted to 3.0 using orthophosphoric acid. 10 mg of ascorib acid was added, mixed, and then filtered through 0.45 μm nylon membrane filter and degassed.

[5] = cited from earlier work
[6] = HPLC analysis of sapropterin solutions in water; format: physicochemical
Experimental: Visual observations of degradation of sapropterin solutions were confirmed through HPLC analysis. The following methodology was used: Samples that were diluted to ca. 1 mM prior to analysis. HPLC Method • Column: Partisil […] SCX 250× (from […]) • Mode: isocratic • Mobile phase: KH2PO4 30 mM at pH 3.0 • Oven temperature: 30° C. • injection volume: 25 μL • flow: 1.5 mL/min (generated ca. 60 bar) • Detection: DAD 254-360 with acquisition at 254 HPLC System (VWR Hitachi) • VWR Hitachi L-2000 organizer • DAD: L2455 • Autosampler: L2200 • Pump: L2130 • Column oven: L2350 Preparation of Mobile Phase • 1) V (H2O)=500 mL • 2) m(KH2PO4)=2.04 g (MW=136.09 g/mol) • 3) To pH 3 with phosphoric acid diluted 50 fold with water (v/v) • Note: prior to dilution phosphoric acid stock was at 85% • Note2: 5-8 g of 1/50 diluted solution are required to drop pH to 3.0 Three solutions of sapropterin in water at 100 mM were submitted to HPLC analysis. Each solution was tested at a different time point one was tested when freshly prepared, one after one day and the other after 7 weeks old.

[7] = cited from earlier work; remark: listed apart in the source
[8] = 0.1 M phosphate buffer, pH 6.8, room temperature

C[C@H](O)[C@H](O)[C@H]1CNc2nc(N)[nH]c(=O)c2N1 [Sapropterin, sapropterin]
sapropterin degraded [1]: 3-7% | oxidation products by HPLC [2]: vestigial amounts of oxidation products | stability over time (visual observation) [3]: very unstable | Impurities (% w/w): Impurity A [4]: 0.02 % w/w | Impurities (% w/w): Impurity B [4]: 11.791 % w/w | Impurities (% w/w): Impurity C [4]: 5.322 % w/w | Impurities (% w/w): Impurity D [4]: 0.116 % w/w | Impurities (% w/w): Impurity H [4]: 0.106 % w/w | Impurities (% w/w): Unknown impurity @RRT 0.70 [4]: 0.191 % w/w | Impurities (% w/w): Unknown impurity @RRT 0.85 [4]: 0.026 % w/w | Impurities (% w/w): Unknown impurity @RRT 0.89 [4]: 0.010 % w/w | Impurities (% w/w): Unknown impurity @RRT 0.94 [4]: 0.108 % w/w | Impurities (% w/w): Unknown impurity @RRT 1.11 [4]: 0.015 % w/w | Impurities (% w/w): Unknown impurity @RRT 1.41 [4]: 0.212 % w/w | Impurities (% w/w): Unknown impurity @RRT 1.54 [4]: 0.022 % w/w | Impurities (% w/w): Unknown impurity @RRT 1.63 [4]: 0.010 % w/w | Impurities (% w/w): Unknown impurity @RRT 1.77 [4]: 0.007 % w/w | Impurities (% w/w): Unknown impurity @RRT 2.08 [4]: 0.004 % w/w | Impurities (% w/w): Unknown impurity @RRT 2.15 [4]: 0.007 % w/w | Impurities (% w/w): Unknown impurity @RRT 2.24 [4]: 0.006 % w/w | Impurities (% w/w): Unknown impurity @RRT 2.34 [4]: 0.095 % w/w | major degradation products [4]: Impurities B and C | degradation of solution in water ([5]; 0.1 mM, after 1 hour open at room temperature): about 25% | degradation of solution in water ([5]; 0.1 mM, after 3 hours): more than 60% | degradation of solution in water ([5]; 1 mM, after 1 hour open at room temperature): 2% | degradation of solution in water ([5]; 1 mM, after 3 hours): 10% | half-life [5, 8]: ~16 min | time until completely destroyed [5, 8]: 90 min | stability of solutions in 0.1 N HCl ([5]; −20° C.): stable for several weeks | time after which an oxidation sub-product peak became evident ([6]; 1 mM solution): 2 h | oxidation product by HPLC ([6]; 100 mM in water, after 7 weeks): showed a peak at 4.2 min attributed to oxidation sub-products | oxidation product by HPLC ([6]; 100 mM in water, after one day): showed a peak at 4.2 min attributed to oxidation sub-products | oxidation product by HPLC ([6]; 100 mM in water, freshly prepared): did not show any oxidation product | reduction in the SPT peak by oxidation ([6]; 100 mM in water, within a period of 24 h): not pronounced | pH of solution in water ([7]; 1 mM solution): 3.0 | pH of solution in water ([7]; 1 M solution): 0.45 | solubility in water [7]: freely soluble
